Laboratory results as given in US6015560A, “Antibody recognizing endothelial cell ligand for leukocyte CR3” (priority 1995, dated 2000).

How the values were obtained:
[1] = system: human umbilical vein endothelial cells; experiment: Adherence of neutrophils to cultured (TNF-stimulated) endothelial cells; assay type: cell-based; settings: peptides 0.5 mM
Description: (§1) Human umbilical vein endothelial cells (HUVEC, first passage, Clonetics, San Diego, Calif.) were subcultured at confluence into Terasaki tissue culture wells. After 24 hours, confluent monolayers were used for adherence assays. Monolayers were stimulated with 10 ng/ml TNF alpha (Boehringer Mannheim, Indianapolis, Ind.) at 37° C. for four hours. 30 μl of human neutrophils (10^6 /ml) were labeled with fluorescein by the method of Lo et al. (1991), J. Exp. Med. 173 1493-1500, and preincubated for 15 minutes at 37° C. with 20 μl of peptides (0.5 mM in HAP) or HAP (phosphate buffered saline containing 0.5 mg/ml human serum albumin, 3 mM glucose, and 0.3 U/ml aprotinin) as a control buffer. For some experiments, endothelial cells were pretreated from 10 minutes with Factor X or antibodies against Factor X receptor (EPR-1; Altieri et al. (1990), J. Immunol. 145, 246-253) 12H1 and 9D4 (obtained from Dr. D. Altieri, Scripps Research Institute, Lajolla, Calif.) and then washed. Neutrophils were allowed to adhere to the monolayer for 15 mins. at 37° C. and unbound cells were removed by submersion of the plate in PBS buffer. The number of adherent neutrophils was counted in a 40× microscope field and expressed as a percentage of adherence in control wells with neutrophils treated with HAP buffer alone. The mAb IB4 against CD18 (50 μg/ml; Merck Inc., Rahway, N.J.) served as a positive control.
(§2) The procedures for determining the neutrophil adherence to cultured endothelial cells and the transendothelial migration of neutrophils were identical with those of Example 9. Control values were the same as those shown in Example 9.

neutrophils = experiment: Transendothelial migration of neutrophils; assay type: cell-based, human; settings: peptides 0.01 mM
Description: Transendothelial migration of neutrophils was studied based on a method described by Muller et al. (1992), J. Exp. Med. 176: 819-828. Briefly, human neutrophils suspended in ice-cold Hanks balanced salt solution (HBSS) containing Ca^++ and Mg^++ (Sigma) were fluoresceinated by adding 3.3 μl/ml 5-(and 6-)carboxyfluorescein diacetate, succinimidyl ester (CFSE, Molecular Probes Inc., Oreg.). After incubation for 30 mins. on ice, neutrophils were washed twice in cold HBSS with Ca^++ and Mg^++ and resuspended in cold Medium 199 (M199, Sigma) to a final concentration of 10^6 /ml. Human umbilical vein endothelial cells were subcultured at confluence into 96-well tissue culture plates (Becton Dickinson Labware, Lincoln Park, N.J.) that were coated with hydrated collagen gel (Vitrogen; Collagen Corporation, Palo Alto, Calif.) and fibronectin. Endothelial cells were stimulated with 10 ng/ml TNF-alpha for 4 hours and washed three times with warm M199. Neutrophils (10^6 /ml) were preincubated with 0.01 mM of peptides or with 1 μM of native FHA in M199 for 5 mins. on ice before they were added in 100 μl aliquots to the endothelial cells. For positive control, neutrophils were pre-incubated with 25 μg/ml anti-CD18 mAb IB4. For negative control, neutrophils were treated with 25 μg/ml mAb W6/32 against HLA class I antigen (Dako, Carpinteria, Calif.). The cells were incubated for 1 hour at 37° C., 5% CO2. To terminate transmigration, the supernatant fluid was aspirated and the wells were filled with warm 1 mM EGTA (Sigma) in HBSS without Ca and Mg. The plates were covered with plate sealers (Dynatech, Alexandria, Va.) and centrifuged in an inverted position at 250 g for 3 mins. at room temperature. To remove residual non-transmigrated neutrophils from the endothelial cells, monolayers were washed twice with 200 μl of warm Hanks solution without Ca and Mg. Fluorescence was quantitated using a fluorescence counter (Millipore Cytofluor™ 2300). The percentage of transmigrated neutrophils was determined by comparing the amount of fluorescence of test wells with that measured in collagen- and fibronectin-coated wells without endothelial cells. […] Percent inhibition of transendothelial migration of neutrophils was calculated by comparing the number of transmigrated cells in wells containing neutrophils treated with peptide to neutrophils treated with M199 alone and arbitrarily set at 100% transendothelial migration (TEM).
as §2

leukocytes in CSF = experiment: Rabbit meningitis model: leukocyte migration into CSF; assay type: in vivo; settings: for mean leukocyte concentration in CSF: peptides 10 μM i.v.; for reduction of CSF leukocytosis: peptides 10 μM, FHA 0.1 μM
Description: (§3) The rabbit model was performed according to an established protocol. Specific pathogen free, New Zealand white rabbits (2 kg; Hare Marland, Nutley, N.J.) were anesthetized with valium (2.5 mg/kg, subcutaneously, Hoffman-LaRoche, Nutley, N.J.), ketamine (35 mg/kg, intramuscularly, Aveco, Fort Dodge, Iowa) and xylazine (5 mg/kg, intramuscularly, Miles Laboratories, Shawnee, Kans.) and a helmet of dental acrylic was affixed to the calvarium. Twenty four hours later, the rabbits were anesthetized with ethyl carbamate (1.75 g/kg; Aldrich Chemical Co., Milwaukee, Wis.) and pentobarbital (15 mg/kg; Abbott Laboratories, Abbott Park, Ill.) and placed in a stereotaxic frame. A spinal needle was introduced into the cisterna magna and 300 μl of CSF was withdrawn. The animals were challenged intracisternally with 10^8 heat killed, unencapsulated pneumococcus strain R6 introduced in 200 μl of saline (time 0). One hour later, animals were treated with peptides dissolved in 1 ml of saline by intravenous injection into the right marginal ear vein. The concentration of FHA was 0.1 μM and that of the FHA Ia, Factor X II, and scrambled FHA II peptides was 10 μM. For the acetyl-FHA II, acetyl/amide-FHA II, dimer of FHA II and trimer of FHA II peptides, the concentration was 10^-3 μM. The concentration of FHA II is given in the results section. Samples of CSF were withdrawn at hourly intervals after pneumococcal inoculation and leukocyte density was measured using a cell counter (Coulter Electronics Inc., Hialeah, Fla.). CSF samples were centrifuged at 10,000×g for 5 minutes and the supernatant was stored at -70° C. until assayed for protein concentration using the bicinchoninic acid method (BCA Kit, Pierce Chemical Co., Rockford, Ill.) and for lactate concentration (Lactate Detection Kit, Sigma, St. Louis, Mo.). Statistically significant differences between treatments were determined by a one way analysis of variance test.
The anti-inflammatory effects of the administered peptides were assessed in the rabbit model for meningitis by the procedures described in Example 10. The animals received 1 ml of 1 uM peptide intravenously. In a slight departure from the protocol described in Example 10, samples of blood were drawn from the left marginal ear vein 30 minutes after the administration of the peptides to determine peripheral leukocyte concentrations.

Factor Xa = experiment: Generation of Factor Xa by monocytes (THP-1 cells); assay type: cell-based; settings: 0.5 mM; for reduction of Factor Xa production: 20 min
Description: Factor Xa generation was determined by a modification of the method of Miletich et al. (1978), J. Biol. Chem. 253: 6908-6916. THP-1 cells (ATCC; 3×10^7 /ml) resuspended in RPMI 1640 (Bio Whittaker, Walkersville, Md.) were incubated with 100 μM ADP (Sigma), 2.5 mM CaCl2, 1 or 5 μg/ml Factor X (Hematologic Technologies Inc.) and 0.5 mM peptides at room temperature. After 20 minutes, 100 μl of the reaction mixture was transferred to 37° C. and supplemented with 100 μl of bovine factor VII- and Factor X-deficient plasma (Sigma). Coagulation was initiated by adding 100 μl of 25 mM CaCl2 and the clotting time was determined. Factor Xa procoagulant activity (ng/ml) was calculated by means of a standard curve constructed by serial concentrations of Factor Xa (Hematologic Technologies Inc.) from 50 to 250 ng/ml.

endothelial cells = experiment: Cooperative inhibition of neutrophil adherence by peptide plus antibody; assay type: cell-based, human; settings: for additive reduction of neutrophil adherence: together with IB4 (50 μg/ml)
Description: as §1
The ability of FHA peptides and anti-CD18 or anti-Factor X receptor antibodies to interact cooperatively to inhibit neutrophil adherence to endothelial cells was assessed by measuring neutrophil adherence to endothelial cells in the presence of antibody as well as antibody plus peptide. Anti-CD18 mAb IB4 was added to leukocytes at 10 μg/ml 10 min before the assay. Anti-Factor X receptor mAb 12H1 (10 μl of ascites) or 9D4 (10 μg/ml) were added to the endothelial cell monolayers 10 min before the assay. The peptides were added at 5 μg/ml. The results are shown in Table 8 where the numerical values are in % of control binding.

blood brain barrier = experiment: Rabbit meningitis model: CSF protein and lactate (blood brain barrier permeability); assay type: in vivo; settings: 10 μM peptides, 0.1 μM FHA
Description: as §3
Loss of barrier function of the cerebral capillary endothelium during inflammation is reflected by an influx of serum proteins into the CSF. […] To examine if the peptides were able to ameliorate these measures of cerebral injury, CSF protein and lactate concentrations were measured hourly in peptide-treated and control animals (Table 10).
Leukocyte migration into the CSF in bacterial meningitis is associated with loss of barrier function of the cerebral capillary endothelium, resulting in influx of serum proteins into the CSF. To determine whether FHA peptides were able to prevent this leukocyte-dependent injury, protein concentrations in the CSF were measured throughout the course of inflammation in peptide-treated and control animals.

C3bi = experiment: Inhibition of binding of 12.1F9 to E-C3bi by peptides; parameters: species or system human; settings: for block of binding of 12.1F9 to C3bi: e-c3bi on antibody-coated wells
Source text: The antibody 12.1F9 maps to the region 1279-2011 of FHA. When the derived amino acid sequence of this region was compared to that of C3, a region of 11 amino acids with similar sequence was found between FHA residues 1408-1418 and C3 residues 1187-1197 (Table 14). […] However, the FHA-20-mer and the homologous C3-derived peptide blocked binding by up to 60%.

[2] = peptide 5 μg/ml plus 9D4 10 μg/ml
[3] = peptide 5 μg/ml plus 12H1 10 μl of ascites
[4] = peptide 5 μg/ml plus IB4 10 μg/ml

## DEETVK [scrambled FHA II, reference compound]
[1]
  interference with neutrophil adherence (in words): did not interfere with neutrophil binding
neutrophils
  % Inhibition of TEM: 4 ± 5%
Leukocytes in CSF; 7 hours
  mean leukocyte concentration in CSF: 6431±1380 /μl CSF

## ETKEVDG [FHA II]
Factor Xa
  Factor Xa generation (in words): did not interfere with the generation of Factor Xa procoagulant activity
Endothelial cells; [2]
  % of control binding: 45 ± 9 % of control binding
Endothelial cells; [3]
  % of control binding: 67 ± 13 % of control binding
Endothelial cells; [4]
  % of control binding: 11 ± 6 % of control binding
Endothelial cells; peptide 5 μg/ml, no antibody
  % of control binding: 40 ± 23 % of control binding
Endothelial cells
  additive reduction of neutrophil adherence: > 80±10%
Blood brain barrier
  protein influx into CSF and lactate generation (in words): significantly reduced protein influx into the CSF and generation of lactate
Leukocytes in CSF; 10^-3 μM i.v.
  anti-inflammatory effect (in words): ineffective
Leukocytes in CSF; 7 hours
  mean leukocyte concentration in CSF: 2645±1412 /μl CSF
Leukocytes in CSF; 7 hours, 10^-1 μM
  leukocyte density vs control (in words): statistically significantly different from control
Leukocytes in CSF
  reduction of CSF leukocytosis: > 60%

## GLIQGRSVKVD [FHA Ib]
Factor Xa
  reduction of Factor Xa production: 81%
neutrophils
  % Inhibition of TEM: 7 ± 10%

## GLYQAKRFKVG [Factor X I, reference compound]
Factor Xa
  Factor Xa generation (in words): substantial reduction that did not reach statistical significance

## GRTRG [FHA III]
Factor Xa
  reduction of Factor Xa production: 74%
[1]
  interference with neutrophil adherence (in words): less effective than the corresponding Factor X derived peptide
neutrophils
  % Inhibition of TEM: 5 ± 6%

## GYDTKQEDG [Factor X II, reference compound]
Factor Xa
  reduction of Factor Xa production: > 90%
Blood brain barrier
  protein influx into CSF and lactate generation (in words): no significant reduction
Leukocytes in CSF; 7 hours
  mean leukocyte concentration in CSF: 1622±521 /μl CSF
Leukocytes in CSF
  reduction of CSF leukocytosis: > 60%

## IDRSMKTRG [Factor X III, reference compound]
Factor Xa
  Factor Xa generation (in words): substantial reduction that did not reach statistical significance
neutrophils
  % Inhibition of TEM: 5 ± 7%

## LGYQAK [FHA Ia]
Endothelial cells; [2]
  % of control binding: 63 ± 17 % of control binding
Endothelial cells; [3]
  % of control binding: 64 ± 12 % of control binding
Endothelial cells; [4]
  % of control binding: 20 ± 7 % of control binding
Endothelial cells; peptide 5 μg/ml, no antibody
  % of control binding: 63 ± 12 % of control binding
Endothelial cells
  additive reduction of neutrophil adherence: > 80±10%
Blood brain barrier
  protein influx into CSF and lactate generation (in words): no significant reduction
[1]
  interference with neutrophil adherence (in words): significantly more active than the Factor X peptide I
Leukocytes in CSF; 7 hours
  mean leukocyte concentration in CSF: 1640±1210 /μl CSF
Leukocytes in CSF
  reduction of CSF leukocytosis: > 60%

## VTVGRGDPHQG [FHA RGD]
C3bi; peptides 50 μg/ml, normalized to a control value of 100
  Adherence index: 85 ± 9

## YTVAIAGYALA [C3-pep 1187-1197]
C3bi
  block of binding of 12.1F9 to C3bi: up to 60%

## YTVSADAIALA (YTVAIAGYALA) [FHA 1408-1418]
C3bi
  block of binding of 12.1F9 to C3bi: up to 60%
